Data: publication PMC3638593, “1,4-dihydroxy-2-naphthoic Acid Induces Apoptosis in Human Keratinocyte: Potential Application for Psoriasis Treatment” (Evidence-based Complementary and Alternative Medicine : eCAM, 2013)
Where “and” joins values, the source holds several entries; their conditions need not be identical. Equal entries are not always repeated. Where two headings read alike, the source gives them in different places.

Experiments:
Type in all cases: cell-based, human
HaCaT cells [1] = test: Annexin V/propidium iodide staining, flow cytometry; conditions: for viability at 30 µM / viability at 60 µM / viability at 120 µM / viability at 240 µM: Homo sapiens, HaCaT, read-out: viable cells (FITC−/PI−, lower left)
Method: After DHNA treatment, HaCaT cells were resuspended in annexin V binding buffer (10 mM HEPES, 140 mM NaCl, and 2.5 mM CaCl2, pH 7.4) and then incubated with FITC-conjugated annexin V (Biosource International, Inc., USA), and 0.5 μg/mL propidium iodide (PI) for 15 min at room temperature in the dark. Cells were analyzed on a FACSCanto flow cytometer (BD Biosciences, San Jose, CA, USA) immediately and then analyzed using WinMDI 2.9 (developed by Dr. J. Trotter, Scripps Institute, La Jolla, CA, USA). The total number of early (FITC+/PI−) and late (FITC+/PI+) apoptotic cells was assessed. In another experiment, HaCaT cells were preincubated with 40 μM pan-caspase inhibitor Z-VAD-FMK (BD Pharmingen, San Diego, CA, USA) for 1 h before exposure to DHNA.

HaCaT cells [2] = test: Cell cycle analysis (PI, flow cytometry); conditions: 24 h, Figure 5(a)
Method: HaCaT cells were treated with DHNA for 24 h, fixed with 75% ice-cold ethanol at 4°C for 1 h and stained with PI/RNase solution (BD Pharmingen) for 15 min at room temperature in the dark. Stained cells were analyzed using the FACSCanto flow cytometer immediately. Cell cycle distribution was calculated with ModFit LT 3.1 (Verity Software House, Topsham, ME, USA).

[3] = tested on: cell cycle related proteins in HaCaT cells; test: Western blot of cell cycle related proteins; conditions: 12 h
Method: (§1) After DHNA treatment HaCaT cells were collected and lysed in CelLytic M Mammalian Cell Lysis/Extraction Reagent with freshly added Protease Inhibitor Cocktail for 30 min at 4°C. Cell lysate was centrifuged at 15000 g for 15 min at 4°C and supernatant was collected as whole cell lysate. Protein concentration was determined by Bio-Rad protein assay dye reagent concentrate (Bio-Rad Laboratories, Hercules, CA, USA) following the manufacturer's instructions. Whole cell lysate was denatured by boiling for 5 min in 6X SDS loading buffer (0.375 M Tris [pH 6.8], 30% glycerol, 12% SDS, 0.2% bromophenol blue and 12% β-mercaptoethanol). Equal amount of protein (10–20 μg) was then separated by 12–15% SDS-PAGE and later proteins were transferred to polyvinylidene difluoride membrane (Millipore, Billerica, MA, USA) using Trans-Blot SD semidry transfer cell (Bio-Rad Laboratories). After that, membranes were blocked with 2–5% (w/v) bovine serum albumin or nonfat dry milk in Tris-buffered Saline-Tween (TBS-T; 0.05% v/v Tween-20, 10 mM Tris [pH 7.4], 150 mM NaCl) for 1 h and subsequently incubated overnight at 4°C with different primary antibodies in TBS-T. Membrane was then washed using TBS-T and followed by incubation with corresponding horseradish peroxidase labeled second antibodies (Santa Cruz Biotechnology) in TBS-T for 1 h. After washing of membrane with TBS-T, protein bands were visualized using Immobilon Western Chemiluminescent HRP Substrate (Millipore) and autoradiography with Lumi-Film Chemiluminescent Detection Film (Roche Applied Science). Equal protein loading was monitored by β-actin antibody on the same membrane.

[4] = tested on: apoptosis related proteins in HaCaT cells; test: Western blot of apoptosis related proteins
Method: as §1

[5] = tested on: IL-1α release from NCTC 2544 cells; test: IL-1α release assay (ELISA)
Method: NCTC 2544 cells were seeded and treated with various concentrations of DHNA or dithranol for 72 h. After incubation, the microplate was centrifuged and conditioned medium was collected to determine the extracellular IL-1α (IL-1α release) using an IL-1α ELISA kit (Diaclone Research, France). All other steps were then according to the manufacturer's protocol. Results were expressed in pg/mL.

In the case of O=C(O)c1cc(O)c2ccccc2c1O [DHNA, 1,4-dihydroxy-2-naphthoic acid], the “total apoptotic fraction (early plus late apoptotic cells)” value (“total apoptotic fraction” for short) (HaCaT cells [1]; 30 μM/6.13 μg/mL, 9 h) is reported as 10.4%, the “total apoptotic fraction” value (HaCaT cells [1]; 30 μM/6.13 μg/mL, 24 h) is reported as 13.7% and the “total apoptotic fraction” value (HaCaT cells [1]; 240 μM/49.01 μg/mL, 9 h) is reported as 45.5%. The “total apoptotic fraction” value (HaCaT cells [1]; 240 μM/49.01 μg/mL, 24 h) was 89.7%, the viability at 30 µM (HaCaT cells [1]; 9 h) was 88.9% and the viability at 30 µM (HaCaT cells [1]; 24 h) was 85%. The viability at 60 µM (HaCaT cells [1]; 9 h) was 86.2%, the viability at 60 µM (HaCaT cells [1]; 24 h) was 77.5% and the viability at 120 µM (HaCaT cells [1]; 9 h) was 81.8%. The viability at 120 µM (HaCaT cells [1]; 24 h) was 50.2%, the viability at 240 µM (HaCaT cells [1]; 9 h) was 44.3% and the viability at 240 µM (HaCaT cells [1]; 24 h) was 8.8%. It also gave a G0/G1 cell population (HaCaT cells [2]; 60 μM (12.25 μg/mL)) of 39.3%, a G2/M phase cells (HaCaT cells [2]; 60 μM (12.25 μg/mL)) of 12.4% and a G0/G1 cell population (HaCaT cells [2]; 120 μM (24.5 μg/mL)) of 51.0%. For the same compound, the G2/M phase cells (HaCaT cells [2]; 120 μM (24.5 μg/mL)) was 9.4%, the S phase cells (HaCaT cells [2]; 120 μM (24.5 μg/mL)) was 39.6% and the sub-G0/G1 population (HaCaT cells [2]; 120 μM (24.5 μg/mL)) was 19.7%. For the same compound, the “active form of Cdk2 (Thr160 phosphorylated, 33 kDa)” value ([3]; 240 μM (49.01 μg/mL)) was “no visible change”, the “inactive form of Cdk2 (Thr14 and Tyr15 phosphorylated, 34 kDa)” value ([3]; 240 μM (49.01 μg/mL)) was “increased” and the “level of Cyclin A/D1/D3 and Cdk4” value ([3]; 240 μM (49.01 μg/mL)) was “decreasing”. For the same compound, the “expression level of p27 and Cdk6” value [3] was “remains unchanged”, the “expression of cyclin dependent kinase inhibitor p21” value [3] was “dose-dependent increase” and the Bid cleavage ([4]; 240 μM (49.01 μg/mL), 12 h) was “not cleaved”. The “Fas receptor and active form of caspase-3/7/8” value ([4]; 240 μM (49.01 μg/mL), 12 h) was “upregulated”, the PARP cleavage ([4]; 240 μM (49.01 μg/mL), 12 h) was “induced PARP cleavage” and the “active form of caspase-9” value ([4]; 240 μM (49.01 μg/mL), 12 h) was “no active form of caspase-9 was found”. The procaspase-8 level ([4]; 240 μM (49.01 μg/mL), 12 h) was “decreased”, the “expression levels of Bcl-2, Bcl-xL, Bid, and FADD” value ([4]; 12 h) was “no significant changes” and the “activated caspase-9 and cleaved Bid” value ([4]; 24 h) was “could then be detected”. For the same compound, the “IL-1α release at IC50 on NCTC 2544 keratinocytes” value ([5]; 46.80 μM or 9.56 μg/mL, 72 h) was “no significant IL-1α was released”, the “higher concentration needed for IL-1α release than dithranol” value ([5]; NCTC 2544, 72 h, DHNA versus dithranol) was ~ 30 times and the “concentration at which IL-1α release is significantly induced” value ([5]; NCTC 2544, 72 h, versus vehicle control) was 60 μM and 12.25 μg/mL.
